“Also recorded” adds a separate entry of the source.
Experiments:
[1] = Human pharmacokinetics: open-label, randomized relative bioavailability study of Compounds 1 and 3 (plasma total, unbound and iron bound Compound 2); type: in vivo; conditions: healthy adults, oral capsules; plasma Compound 2; relative to Compound 3, see Table 14
Method: The purpose of this Example is to characterize the pharmacokinetic profiles of Compound 1 (disodium salt) and its magnesium hydroxide salt counterpart, Compound 3:
This human study is part of an open-label, randomized, single dose, 3-period, relative bioavailability study in up to 28 healthy adults 18-65 years of age inclusive, investigating the pharmacokinetics, safety, and tolerability of Compounds 1 and 3. In this study, each study compound is administered as a single dose of 36.2 mg/kg/day or 18.1 mg/kg/day, respectively (as free acid), and as 2 doses of 36.2 mg/kg or 18.1 mg/kg, respectively (as free acid), given 12 hours apart. Table 13 provides dosages relative to free acid content.
The magnesium hydroxide salt (Compound 3) is administered as oral capsules in the following strengths: 50, 100, 200, 375 and 500 mg. The disodium salt (Compound 1) is administered as oral capsules in the following strengths: 54.1, 272.8 and 408.7 mg.
There will be 3 treatment periods in this study and 4 possible treatments. […]
Actual pharmacokinetic blood sample collection times versus time of dosing will be monitored. […]

[2] = Form inter-conversion by stirring in TBME/ethanol/water (20/5/1, v/v/v); type: physicochemical; conditions: TBME/ethanol/water (20/5/1, v/v/v) at 18-23° C. for 4 days
Method: A mixture of Forms A, B, C, and D (present in equal amounts) of Compound 1 was stirred in TBME/ethanol/water (20/5/1, v/v/v) at 18-23° C. for 4 days.
A reaction vessel was charged with a mixture of Forms A-D of Compound 1 (25 mg, 1.0 wt.). A solution of TBME/EtOH/water (20/5/1, 10 vol) was added, and was stirred at 18-23° C. for 4 days. The solid was isolated by filtration, washed with recycled mother liquors, and dried under vacuum under a N2 atmosphere.
A reaction vessel was charged with Form A of Compound 1 (25 mg, 1.0 wt.). A solution of TBME/EtOH/water (20/5/1, 10 vol) was added, and was stirred at 18-23° C. for 4 days. The solid was isolated by filtration, washed with recycled mother liquors, and dried under vacuum under a N2 atmosphere.
A reaction vessel was charged with Form B of Compound 1 (25 mg, 1.0 wt.). A solution of TBME/EtOH/water (20/5/1, 10 vol) was added, and was stirred at 18-23° C. for 4 days. The solid was isolated by filtration, washed with recycled mother liquors, and dried under vacuum under a N2 atmosphere.
A reaction vessel was charged with Form C of Compound 1 (25 mg, 1.0 wt.). A solution of TBME/EtOH/water (20/5/1, 10 vol) was added, and was stirred at 18-23° C. for 4 days. The solid was isolated by filtration, washed with recycled mother liquors, and dried under vacuum under a N2 atmosphere.
A reaction vessel was charged with Form D of Compound 1 (25 mg, 1.0 wt.). A solution of TBME/EtOH/water (20/5/1, 10 vol) was added, and was stirred at 18-23° C. for 4 days. The solid was isolated by filtration, washed with recycled mother liquors, and dried under vacuum under a N2 atmosphere.

[3] = Drying of Form A under vacuum at elevated temperature (weight loss, XRPD, HPLC/1H NMR); type: physicochemical
Method: Form A (1.0 g) was dried at 60° C. under reduced pressure for 24 h. During this time the sample decreased in weight by −7.3% w/w.
A sample of Form A was dried for 48 h under vacuum at 60° C. and reweighed. The material decreased in weight by 9.30% w/w.
The reactions conditions were repeated on a 1.0 g scale: a sample of Form A was dried for 24 hr under vacuum at 60° C. and reweighed. The material decreased in weight by 7.30% w/w. […] The material was allowed to cool to ambient temperature under vacuum before releasing the vacuum with nitrogen and transferring the Form D into a poly-tub under nitrogen.

[4] = Humidity exposure / comparative hygroscopicity study of solid forms (weight change, appearance, XRPD); type: physicochemical
[5] = as above; type: physicochemical; conditions: for XRPD form: 48 hrs; for XRPD (final form): 18-23° C., 48 h
Method: X-Ray powder diffraction (XRPD) analysis was carried out using a Bruker D2 Phaser powder diffractometer employing a LynxEye detector. The samples underwent minimum preparation but, if necessary they were milled in a pestle and mortar before acquisition.
The samples were continuously spun during data collection and scanned using a step size of 0.02° two theta (2θ) between the range of 4°-40° two theta and a count time of 10 seconds per step. Data was processed using Bruker Diffrac. Suite.
Samples of Form D were placed in humidity chambers at 45%, 60% and 75% RH at 18-23° C. and their weight changes were monitored at intervals up to 48 h.
Accurately weighed samples of Form D were placed in humidity chambers at 45%, 60% and 75% R.H. and monitored for weight changes over 48 h.

[6] = 75% relative humidity (RH) at 15-25° C. for 1-2 days

Q: Which “AUC higher than Compound 3” value [1] does the source give for `COCCOCCOCCOc1cccc(C2=N[C@@](C)(C(=O)[O-])CS2)c1[O-].[Na+].[Na+]` [Compound 1, (S)-2-(2-hydroxy-3-(2-(2-(2-methoxyethoxy)ethoxy)ethoxy)phenyl)-4-methyl-4,5-dihydrothiazole-4-carboxylate disodium] here?
A: The value was roughly 22%.

Q: What about the “Cmax higher than Compound 3” value [1] of the same molecule?
A: Its value is roughly 35%.

Q: For `COCCOCCOCCOc1cccc(C2=N[C@@](C)(C(=O)[O-])CS2)c1[O-].[Na+].[Na+]` [Form A, (S)-2-(2-hydroxy-3-(2-(2-(2-methoxyethoxy)ethoxy)ethoxy)phenyl)-4-methyl-4,5-dihydrothiazole-4-carboxylate disodium Form A polymorph], which “Output form after stirring in solvent” value [2] is on record?
A: The value was “remained Form A”.

Q: And the Form after drying ([3]; 40° C. under vacuum for 48 h)?
A: Its Form after drying is “partial transformation of Form A to Form D”.

Q: And the Form after drying ([3]; 60° C. under vacuum for 24 hours)?
A: The Form after drying was “converted to Form D; also recorded: converted into Form D”.

Q: What about the “Chemical stability on drying (HPLC and 1H NMR)” value ([3]; 60° C. under vacuum for 48 h) of the same molecule?
A: The value was “decomposition had not occurred”.

Q: And the “Decrease in weight on drying” value ([3]; 60° C. under vacuum for 48 h)?
A: Its value is 9.30 % w/w.

Q: What about the “Form after drying (XRPD)” value ([3]; 60° C. under vacuum for 48 h) of the same molecule?
A: Its value is “Form D”.

Q: And the “Form after exposure to humidity” value ([4]; 43% RH at 50° C. for 5 days)?
A: The value was “remained as Form A”.

Q: And the “Form after exposure to humidity” value [4, 6]?
A: Its value is “remained as Form A”.

Q: For `COCCOCCOCCOc1cccc(C2=N[C@@](C)(C(=O)[O-])CS2)c1[O-].[Na+].[Na+]` [Form B, (S)-2-(2-hydroxy-3-(2-(2-(2-methoxyethoxy)ethoxy)ethoxy)phenyl)-4-methyl-4,5-dihydrothiazole-4-carboxylate disodium Form B polymorph], which “Output form after stirring in solvent” value [2] is on record?
A: The value was “converted into Form A”.

Q: What about the “Form after exposure to humidity” value [4, 6] of the same molecule?
A: The value was “re-generated Form A”.

Q: What does the source list for `COCCOCCOCCOc1cccc(C2=N[C@@](C)(C(=O)[O-])CS2)c1[O-].[Na+].[Na+]` [Form C, (S)-2-(2-hydroxy-3-(2-(2-(2-methoxyethoxy)ethoxy)ethoxy)phenyl)-4-methyl-4,5-dihydrothiazole-4-carboxylate disodium Form C polymorph]?
A: Output form after stirring in solvent [2]: converted into Form A; Form after exposure to humidity ([4]; 75% RH at 15-25° C. for 22 h): re-generated Form A; Weight gain on exposure to humidity ([4]; 75% RH at 15-25° C. for 22 h): 18.5 % w/w

Q: What does the source list for `COCCOCCOCCOc1cccc(C2=N[C@@](C)(C(=O)[O-])CS2)c1[O-].[Na+].[Na+]` [Form D, (S)-2-(2-hydroxy-3-(2-(2-(2-methoxyethoxy)ethoxy)ethoxy)phenyl)-4-methyl-4,5-dihydrothiazole-4-carboxylate disodium Form D polymorph]?
A: XRPD form ([5]; 45% R.H.): Form A; XRPD form ([5]; 60% R.H.): Form A; XRPD (final form) ([5]; 60% RH): Form A; XRPD form ([5]; 75% R.H.): Form A; XRPD (final form) ([5]; 75% RH): Form A; Form after exposure to humidity ([5]; exposed to ≧43% relative humidity): reverts to Form A; Output form after stirring in solvent [2]: converted into Form A; XRPD (final form) ([4]; 43% RH, 18-23° C., 48 h): Form A

— US9512095B2, “Polymorph forms of desazadesferrithiocin analogs” (Ferrokin Biosciences, Inc., priority 2013, dated 2016)
